This note sets out measurements from ChEMBL document CHEMBL4673175, “An epigrammatic status of the azole-based antimalarial drugs” (RSC Med Chem, 2020).

The structures appear in SMILES notation. Where only a bound is given, the exact number is not on record here.

Data set [1] concerns Plasmodium falciparum. Description: Antimalarial activity against chloroquine sensitive Plasmodium falciparum 3D7 incubated for 72 hrs by JSB1/JSB2 staining based assay. The class given is functional, organism-based. Particulars: 3D7, 72 h.
For data set [2], the system named is Plasmodium falciparum. In words: Antiplasmodial activity against chloroquine sensitive Plasmodium falciparum FCR-3 infected in human erythrocytes incubated for 72 hrs by giemsa staining based assay. The class given is functional, organism-based. As to conditions: FCR-3, 72 h.
Data set [3] in a line: Selectivity index, ratio of EC50 for cytotoxicity against […] cells to EC50 for antiplasmodial activity against Plasmodium falciparum FCR-3 ATCC 30932 infected in human erythrocytes. It counts as toxicity, cell-based. As to conditions: mouse, read-out: Ratio EC50.
In data set [4] the test system is Plasmodium berghei. In words: Antimalarial activity against Plasmodium berghei ANKA infected in Balb-C mouse assessed as parasitemia at 10 mg/kg, ip administered once daily for 4 consecutive days by Giemsa staining based assay relative to control. It counts as functional. Particulars: time 4 day.
Another data set relates to Hemozoin. In words: Inhibition of beta-hematin formation at 5 to 100 mM incubated for 48 hrs. As to conditions: dose 5-100 mM.
The test system of data set [5] is Plasmodium berghei. In words: Antimalarial activity against Plasmodium berghei ANKA infected in Balb-C mouse assessed as mouse survival time at 10 mg/kg, ip administered once per day for 4 consecutive days (reference value: 8.20 +/- 0.20 days). It counts as functional. As to conditions: time 4 day.
In data set [6] the target is T1, Enoyl-acyl-carrier protein reductase (Plasmodium falciparum, UniProt Q965D5).
T1 sequence (Q965D5 whole entry): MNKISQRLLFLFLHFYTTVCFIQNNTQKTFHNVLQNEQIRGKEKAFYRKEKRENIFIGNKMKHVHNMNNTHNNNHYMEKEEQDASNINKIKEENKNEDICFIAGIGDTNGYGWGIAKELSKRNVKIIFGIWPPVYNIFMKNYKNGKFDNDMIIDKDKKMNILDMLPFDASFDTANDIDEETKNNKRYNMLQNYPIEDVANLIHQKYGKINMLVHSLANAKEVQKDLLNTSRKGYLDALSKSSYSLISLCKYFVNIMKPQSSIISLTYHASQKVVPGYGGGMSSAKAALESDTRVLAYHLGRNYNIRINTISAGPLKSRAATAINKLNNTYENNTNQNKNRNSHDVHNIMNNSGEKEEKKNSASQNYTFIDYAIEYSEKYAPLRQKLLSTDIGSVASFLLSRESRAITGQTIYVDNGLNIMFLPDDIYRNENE
Description: Inhibition of Plasmodium falciparum enoyl-ACP reductase using crotonoyl-CoA as substrate by UV-Vis spectrophotometric method.

In data set [7] the test system is Plasmodium falciparum. Description: Antimalarial activity against chloroquine resistant Plasmodium falciparum incubated for 24 to 48 hrs by Giemsa staining based assay. The class given is functional, organism-based.
In data set [8] the test system is Plasmodium falciparum. Description: Antimalarial activity against chloroquine sensitive Plasmodium falciparum incubated for 24 to 48 hrs by Giemsa staining based assay. It counts as functional, organism-based.
The subject of data set [9] is Plasmodium falciparum. Description: Antimalarial activity against Plasmodium falciparum assessed as reduction in [3H]-hypoxanthine incorporation into DNA incubated for 36 hrs by beta counter method. It counts as functional, organism-based.
The test system of data set [10] is Plasmodium falciparum. In words: Antimalarial activity against chloroquine resistant Plasmodium falciparum. The class given is functional, organism-based.
Data set [11] relates to Plasmodium falciparum. In words: Antimalarial activity against chloroquine sensitive Plasmodium falciparum. The class given is functional, organism-based.
Data set [12] relates to Plasmodium falciparum. In words: Antiplasmodial activity against chloroquine sensitive Plasmodium falciparum D10. The class given is functional, organism-based.
The test system of data set [13] is Plasmodium falciparum. Description: Antimalarial activity against chloroquine sensitive Plasmodium falciparum 3D7 assessed as reduction in schizont maturation incubated for 24 hrs by Giemsa staining based assay. The class given is functional, organism-based. As to conditions: 3D7, 24 h.
Data set [14] relates to Plasmodium falciparum. Description: Antimalarial activity against chloroquine-resistant ring-stage Plasmodium falciparum W2 infected in human erythrocytes by HRP2 assay. It counts as functional, organism-based.
For data set [15], the system named is Plasmodium falciparum. Description: Antiplasmodial activity against ring stage Plasmodium falciparum incubated for 72 hrs by SYBR Green I based assay. It counts as functional, organism-based.
Data set [16] has as its system Plasmodium falciparum. In words: Antiplasmodial activity against chloroquine-sensitive/mefloquine resistant early ring stage Plasmodium falciparum 3D7 by whole-cell SYBR Green I based assay. The class given is functional, organism-based.
In data set [17] the test system is Plasmodium falciparum. In words: Antiplasmodial activity against chloroquine-resistant/mefloquine resistant early ring stage Plasmodium falciparum Dd2 by whole-cell SYBR Green I based assay. It counts as functional, organism-based.
The test system of data set [18] is Plasmodium falciparum. In words: Antiplasmodial activity against Plasmodium falciparum IPC5202 by whole-cell SYBR Green I based assay. The class given is functional, organism-based.
Data set [19] concerns Plasmodium falciparum. In words: Antiplasmodial activity against Plasmodium falciparum IPC4912 by whole-cell SYBR Green I based assay. The class given is functional, organism-based.
The test system of data set [20] is Plasmodium falciparum. Description: Antiplasmodial activity against chloroquine resistant Plasmodium falciparum Dd2. It counts as functional, organism-based.

As usually defined, the IC50 is the point on the concentration scale where inhibition reaches its midpoint. With `NC(=S)N1N=C(c2ccc(N)cc2)CC1c1cn(-c2ccc(Cl)cc2)nc1-c1ccccc1` (centres undefined), the IC50 in the data set with Plasmodium falciparum [1] is < 5000 nM.
In general, EC50 refers to the concentration that produces a half-maximal response. High values mean weaker potency, low ones greater potency. For `CCn1c(=O)/c(=C2\Sc3ccccc3N2C)s/c1=C/c1cc[n+](C)c(-c2ccccc2)c1`, in the data set on Plasmodium falciparum [2], the EC50 was 4 nM. Further, in [3], the selectivity ratio is > 100.
In the data set on Plasmodium falciparum [2], `CCn1c(=O)/c(=C2\Sc3ccccc3N2C)s/c1=C/c1cc[n+](CCO)cc1` gave an EC50 of 4 nM. The selectivity ratio in data set [3] was > 100.
The inhibition is the change of the read-out against control, counted positive when it falls. Read a high inhibition as strong suppression. `Cc1ccc(NC(=O)c2ccc3[nH]c(-c4ccc([N+](=O)[O-])o4)nc3c2)c(C)c1`: the Activity with Plasmodium berghei [4] came out at 3.05%. Moreover, in the data set with Hemozoin, the inhibition was < 98%. Moreover, in the data set with Plasmodium berghei [5], the Time came out at 20.2 days.
In turn, `Cc1ccc(-c2nn(-c3nccc(C(F)(F)F)n3)cc2C=O)cc1` registered an IC50 in data set [6] of 30000 nM.
For `CC(C)n1cncc1CCN`, the IC50 in the data set on Plasmodium falciparum [7] and in the data set with Plasmodium falciparum [8] was 10000 nM throughout.
For `COC(=O)c1c(Nc2cccc(OC)c2)n[nH]c1N`, the IC50 in the data set on Plasmodium falciparum [9] was 140 nM.
In the case of `CC(=O)N1CCN(c2ccc(OCC3COC(Cn4ccnc4)(c4ccc(Cl)cc4Cl)O3)cc2)CC1` (centres undefined) [KETOCONAZOLE], the IC50 in the data set on Plasmodium falciparum [10] and with Plasmodium falciparum [11] was 200 nM in each case.
Compound `C=CCn1c(=O)/c(=C2\Sc3ccccc3N2C)s/c1=C\c1cccc[n+]1C` displayed an EC50 in the data set with Plasmodium falciparum [2] of 4 nM. In addition, the selectivity ratio in data set [3] was > 100.
Turning to `CC(C)(C)n1c(CC(N)C(=O)O)cnc1Cc1ccccc1` (centres undefined), the IC50 in the data set on Plasmodium falciparum [7] and in the data set with Plasmodium falciparum [8] was 10000 nM each time.
For the compound `COc1ccc(C2=NN(C(N)=S)C(c3cn(-c4ccc(OC)cc4)nc3-c3ccccc3)C2)cc1` (centres undefined), the IC50 in the data set on Plasmodium falciparum [1] is < 5000 nM.
With `Clc1ccccc1C(c1ccccc1)(c1ccccc1)n1ccnc1` [CLOTRIMAZOLE], the IC50 in the data set with Plasmodium falciparum [10] and in the data set with Plasmodium falciparum [11] was 200 nM in each case.
As to `COC(=O)c1c(Nc2ccccc2)n[nH]c1N`, in the data set on Plasmodium falciparum [9], the IC50 amounted to 140 nM.
Consider `COc1ccc(CN2CC2Cn2cc(-c3ccccc3)nn2)cc1` (centres undefined), for which the IC50 in the data set with Plasmodium falciparum [12] was ≤ 25000 nM.
Regarding `CCOC(=O)C1=CNC(C)=C(C(=O)OCC)C1c1ccc(OCC(=O)N/N=C/c2cn(-c3ccccc3)nc2-c2ccccc2)cc1` (centres undefined), the IC50 with Plasmodium falciparum [13] was found to be 4.4 nM.
In the case of `Cc1ccc(-n2cc(C3CC(c4ccc(N)cc4)=NN3C(N)=S)c(-c3ccccc3)n2)cc1` (centres undefined), in the data set with Plasmodium falciparum [1], the IC50 was < 5000 nM.
As to `COc1cccc(Nc2n[nH]c(N)c2C#N)c1`, the IC50 in the data set on Plasmodium falciparum [9] is 140 nM.
For `Clc1ccc(COC(Cn2ccnc2)c2ccc(Cl)cc2Cl)c(Cl)c1` (centres undefined) [MICONAZOLE], the IC50 with Plasmodium falciparum [10] and in the data set with Plasmodium falciparum [11] was 200 nM each time.
As for `CCn1c(=O)/c(=C2\Sc3ccccc3N2C)s/c1=C/c1cc[n+](CCCCC(=O)O)cc1`, a half-maximal response in the data set with Plasmodium falciparum [2] (EC50) required 4 nM. The selectivity ratio in data set [3] was > 100.
As to `CCNCC(Cn1cc(-c2ccccc2)nn1)NCc1ccc(Cl)cc1` (centres undefined), the IC50 in the data set on Plasmodium falciparum [12] was ≤ 25000 nM.
For the compound `FC(F)c1cn(-c2ccnc3cc(Cl)ccc23)nn1`, half-maximal inhibition with Plasmodium falciparum [14] (IC50) was put at 1400 nM.
`CCn1c(=O)/c(=C2\Sc3ccccc3N2C)s/c1=C\c1ccc2ccccc2[n+]1C` returned an EC50 in the data set on Plasmodium falciparum [2] of 4 nM. The selectivity ratio in [3] is > 100.
`CCOC(=O)c1sc(N/N=C(\C)c2ccccn2)nc1C`: in the data set with Plasmodium falciparum [15], inhibition was half-maximal at 725 nM (IC50).
With `CCn1c(=O)/c(=C2\Sc3ccccc3N2C)s/c1=C\c1cccc[n+]1CCO`, the EC50 with Plasmodium falciparum [2] turned out to be 4 nM. Besides, the selectivity ratio in data set [3] is > 100.
As to `CC(C)c1nc(CCN)c[nH]1`, the IC50 in the data set on Plasmodium falciparum [7] and in the data set with Plasmodium falciparum [8] was 10000 nM each time.
The compound `CCn1c(=O)/c(=C2\Sc3ccccc3N2C)s/c1=C\c1cc[n+](C)cc1` gave an EC50 in the data set with Plasmodium falciparum [2] of 4 nM. Besides, the selectivity ratio in [3] was > 100.
In the case of `c1ccc(-n2nnnc2OCC2CCC3(CC2)OOC2(O3)C3CC4CC(C3)CC2C4)cc1` (centres undefined), the IC50 in the data set on Plasmodium falciparum [16], in the data set with Plasmodium falciparum [17], in the data set with Plasmodium falciparum [18] and in the data set with Plasmodium falciparum [19] was 0.3 nM each time.
The compound `CCOC(=O)c1cn(-c2ccnc3cc(Cl)ccc23)nn1` registered a half-inhibitory concentration (IC50) in the data set on Plasmodium falciparum [14] of 1400 nM.
On to `CNCC(Cn1cc(-c2ccccc2)nn1)NCc1ccccc1Cl` (centres undefined), for which the IC50 in the data set on Plasmodium falciparum [12] and with Plasmodium falciparum [20] was ≤ 25000 nM in each case.
`C[C@@H]1CC[C@H]2[C@@H](C)C(=O)O[C@@H]3O[C@@]4(C)CC[C@@H]1[C@]32OO4` [ARTEMISININ]: the IC50 in the data set on Plasmodium falciparum [13] amounted to 6 nM.
